The values below come from patent US20230285504A1, “INHIBITION OF REPERFUSION INJURY WITH A PSD-95 INHIBITOR” (NONO INC., priority 2020, published 2023).

Entries after “also recorded” stand apart in the source; their conditions may differ. No end group written: not given here.

Data set [1] is described as follows: In-vitro effect of alteplase (rt-PA) on nerinetide content in rat plasma (HPLC). The data set is classed as in vitro ADME. The conditions noted are these: 65 ug/ml nerinetide, 37 C, alteplase added over 60 minutes (22.5 ug/ml, 3 times and 6 times). The method, then: (§1) A. LC/MS spectrum of nerinetide after incubation with plasmin in PBS. 10 uL aliquots of nerinetide (18 mg/mL) and plasmin (1 mg/mL) were incubated in 500 uL tubes of phosphate-buffered saline at 37 C for 5 min and the reaction stopped by cooling to −80C until tested. The various peaks correspond to the indicated fragments. Insert: Predicted trypsin cleavage sites and actual cleavage sites. (B,C) In-vitro effect of rt-PA on nerinetide content in rat (B) and human (C) plasma. Nerinetide was spiked into the plasma samples at t=0 at a concentration of 65 ug/ml, whereas alteplase (rt-PA) was administered as a 60 min infusion at the indicated concentration (D, E) In-vivo effect of the simultaneous administration of nerinetide and rt-PA on Cmax (D) and AUC (E) in the rat. The nerinetide bolus and alteplase (60 min infusion) were started simultaneously through two separate intravenous lines. Symbols represent mean±SD.
The concentration of 65 ug/ml of nerinetide represents the theoretical peak concentration in a 75 kg person receiving 2.6 mg/kg dose as a bolus. Alteplase was added over 60 minutes to simulate the clinical dosing approach.

The nature of data set [2]: Plasma half-life in human. The data set is classed as in vivo. Conditions: intravenous, human equivalent concentrations, read-out: half-life of nerinetide. The source says:
Tat-NR2B9c has a plasma half-life in human plasma of about ten minutes. […] Alteplase (a recombinant form of tPA) has a half-life in human plasma of only about five minutes. But more significant for present purposes is the half-life of plasmin, which is induced by alteplase and other thrombolytic agents and is responsible for cleavage of Tat-NR2B9c. Plasmin has been reported to have a half-life in human plasma of about 4-8 hr.

For data set [3] the following is noted: intravenous over 10 minutes; cited from earlier work.
In data set [4] the target is protein-protein interactions of PSD-95 with neuronal nitric oxide synthase (nNOS) (Homo sapiens, UniProt P78352). The conditions noted are these: read-out: IC50 perturbing PSD-95 interaction with nNOS; cited from earlier work.
The nature of data set [5]: PK dose-separation study of nerinetide and alteplase in macaques. The data set is classed as in vivo, cynomolgus macaques (Macaca fascicularis). The conditions noted are these: macaque. The method, then:
We conducted further PK studies to probe the necessary dose-separation interval to mitigate degradation. These studies were conducted in cynomolgus macaques (Macaca fascicularis) to maximize their relevance to humans. Nerinetide was given as a 10-minute intravenous infusion at a dose of 2.6 mg/kg. This dosing regimen was neuroprotective in macaques exposed to stroke by LVO (Cook et al., Nature 483, 213-217 (2012)) and was used in both the Phase 2 ENACT trial (Lancet Neurol 11, 942-950 (2012)) and the ESCAPE-NA1 trial (Lancet 395, 878-887 (2020)). We examined the scenarios in which alteplase administration was started simultaneously with the nerinetide infusion start, at the end of the 10-minute nerinetide infusion, or 10 minutes after the end of nerinetide infusion. Alteplase (1 mg/kg) was administered through a separate intravenous line as a 10% bolus, followed by an infusion of the remaining 90% over 1 hour, as per its clinical use.

Data set [6] is described as follows: Pharmacokinetics of nerinetide in rats with simultaneous alteplase. The conditions noted are these: rat. Type of data set: in vivo. The method, then:
as §1
Since the effect of nerinetide in the ESCAPE-NA1 trial was negated by alteplase, we next evaluated the effects of alteplase on pharmacokinetics (PK) of nerinetide in rats. Alteplase was administered at 0.9 mg/kg (human dose) and at 5.4 mg/kg (6 times the human dose) in an infusion that simulated the clinical protocol (10% bolus followed by a 60 min infusion of the remainder). Nerinetide was administered as an intravenous bolus at the start of the alteplase infusion at 7.6 mg/kg.

Setting [7] is: alteplase started at the end of the 10-minute nerinetide infusion.
Setting [8] is: nerinetide 2.6 mg/kg 10-minute iv infusion, alteplase 1 mg/kg started simultaneously.
Where [9] appears, read: nerinetide 7.6 mg/kg iv bolus with alteplase 0.9 mg/kg (human dose).
Where [10] appears, read: nerinetide 7.6 mg/kg iv bolus with alteplase 5.4 mg/kg started simultaneously.

Chain of protein-protein interactions of PSD-95 with neuronal nitric oxide synthase (nNOS) (P78352 whole entry): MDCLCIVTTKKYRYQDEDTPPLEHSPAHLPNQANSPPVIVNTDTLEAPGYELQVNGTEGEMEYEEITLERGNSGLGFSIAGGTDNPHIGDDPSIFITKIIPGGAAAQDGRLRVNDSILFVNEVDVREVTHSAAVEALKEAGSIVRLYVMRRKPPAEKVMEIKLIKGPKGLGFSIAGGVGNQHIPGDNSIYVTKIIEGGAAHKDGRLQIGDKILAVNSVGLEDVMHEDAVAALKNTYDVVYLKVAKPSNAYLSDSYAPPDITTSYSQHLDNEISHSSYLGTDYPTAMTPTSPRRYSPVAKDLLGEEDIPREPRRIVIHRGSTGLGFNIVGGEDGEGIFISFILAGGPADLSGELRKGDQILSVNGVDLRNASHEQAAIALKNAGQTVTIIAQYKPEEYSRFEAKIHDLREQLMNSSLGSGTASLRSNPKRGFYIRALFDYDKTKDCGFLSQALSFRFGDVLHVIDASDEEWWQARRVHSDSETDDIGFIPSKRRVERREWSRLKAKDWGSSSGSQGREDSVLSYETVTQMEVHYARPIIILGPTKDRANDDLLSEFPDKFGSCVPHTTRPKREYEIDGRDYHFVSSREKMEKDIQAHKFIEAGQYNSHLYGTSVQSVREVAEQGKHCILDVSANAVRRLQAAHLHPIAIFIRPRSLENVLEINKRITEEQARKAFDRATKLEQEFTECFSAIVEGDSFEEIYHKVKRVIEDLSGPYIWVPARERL

Broadly, the half-life is how long it takes for the measured level to halve. The term IC50 denotes the midpoint of a concentration-inhibition curve. In the case of YGRKKRRQRRRKLSSIESDV [nerinetide], in data set [1], the “nerinetide content in rat plasma on addition of alteplase” value is reported as “reduced the nerinetide content in rat plasma in a concentration-dependent manner”. The half-life in data set [2] is 5 to 10 min. In addition, the plasma half-life in data set [3] was 5 to 10 min. Also, the 50% inhibitory concentration (IC50) in data set [4] was approximately 200 nM. Besides, the “degradation of Cmax or AUC of nerinetide by alteplase” value in data set [5] (alteplase 10 minutes after the end of the 10-min nerinetide infusion) was “eliminated degradation of Cmax or AUC by alteplase to within the margin of measurement error; also recorded: substantially reduces cleavage of nerinetide”. In addition, in data set [5] (setting [7]), the “reduction in the AUC of nerinetide” value turned out to be 32.3% and the “reduction of the Cmax of nerinetide” value turned out to be 23.1%. Further, in data set [5] (setting [8]), the “reduction in the AUC of nerinetide” value is reported as 53.9% and the “reduction of the Cmax of nerinetide” value was found to be 47.4%. The half-life in data set [6] (plasma, intravenous, 7.6 mg/kg, human equivalent concentrations (FIG. 6D)) was in the range of 5 to 10 min. In data set [6] (setting [9]), the “change of AUC of nerinetide” value is “non-significant reduction” and the “change of Cmax of nerinetide” value is reported as “non-significant reduction”. In addition, in data set [6] (setting [10]), the “lowering of mean AUC of nerinetide” value is recorded as 44% and the “lowering of mean Cmax of nerinetide” value is reported as 49.5%.
